Laboratory results: US4425337A, “Adjuvants for rectal delivery of drug” (priority 1981, dated 1984)

Experiments:
in vivo = details: rat, 10 mg/kg
Experimental: Method: Adult male Sprague/Dawley rats (anesthetized with ethylcarbamate) were given intra-rectal aqueous microenemas. Microenemas are defined as small volume (0.3 ml) aqueous solutions containing drug/adjuvant compounds, administered with a 1 cc syringe at an intra-rectal depth of 2.5 cm. Bioavailabilities versus intravenous administration were calculated as a measure of drug delivery according to the following formula: [formula] wherein

[1] = rat, in vivo; for % Bioavailability ± SEM, Gentamicin: 90 min
Experimental: (§1) Microenemas are defined as small volume (0.3 ml) aqueous solutions containing drug/adjuvant compounds, administered with a 1 cc syringe at an intra-rectal depth of 2.5 cm.
The cefoxitin or gentamicin was administered as sodium cefoxitin or gentamicin sulfate at 10 mg/kg body weight. The adjuvants were administered at 20 mg/kg body weight and n represents the number of animals.

[2] = rat, in vivo, 10 mg/kg, 1.5 h
Experimental: as §1
AUC means area under serum drug level curve from t=0 minutes to t=90 minutes.
Gentamicin bioavailability: Concentration curves for chlorpromazine and perphenazine in rat microenema rectal delivery system.

Row | Compound | % Bioavailability ± SEM, Gentamicin [1] | further results
1 | CO[C@@]1(NC(=O)Cc2cccs2)C(=O)N2C(C(=O)O)=C(COC(N)=O)CS[C@@H]21 [Cefoxitin, (6R-cis)-3-[[(Aminocarbonyloxy]methyl]-7-methoxy-8-oxo-7-[(2-thienylacetyl))amino]-5-thia-1-azabicyclo [4.2.0]oct-2-ene-2-carboxylic acid] | – | bioavailability at 1.5 h (in vivo): 2 ± 0.6%
2 | CN(C)CCCN1c2ccccc2Sc2ccc(Cl)cc21 [Chlorpromazine, chlorpromazine] | 107 ± 6.2% | –
3 | Gentamicin | – | % Bioavailability ± SEM, Gentamicin (adjuvant: None) ([1]; 10 mg/kg, 1.5 h): 1 ± 0.7%; Control bioavailability (without adjuvant) [2]: 1 ± 0.7%

More lines, main results first:

Row | % Bioavailability ± SEM, Gentamicin [1] | Compound | further results
4 | 100 ± 8.3% | OCCN1CCN(CCCN2c3ccccc3Sc3ccc(Cl)cc32)CC1 [Perphenazine, perphenazine] | –
5 | 76 ± 10.9% | CN1CCN(CCCN2c3ccccc3Sc3ccc(Cl)cc32)CC1 [Prochlorperazine] | –
6 | 115 ± 11.5% | CSc1ccc2c(c1)N(CCC1CCCCN1C)c1ccccc1S2 (stereo not shown) [Tiorioazine, thioridazine] | –
